Measurements from ChEMBL document CHEMBL6153135, “Rational Design of a Potent, Selective, and Metabolically Stable CDK9 Inhibitor to Counteract Osimertinib Resistance through Mcl-1 Suppression and Enhanced BRD4 Co-Targeting” (J Med Chem, 2025).
pIC50: −log10 of the molar value. Values after ≈ are worked out from the molar mass of the structure shown. Active and inactive are the calls of the source. The rule behind the calls is not given here.

What was measured:
[1] = Metabolic stability in human liver microsomes assessed as half life measured for 5 to 60 mins by LC-MS/MS analysis; type: ADME, Microsome; details: time 5-60 min
[2] = Metabolic stability in rat liver microsomes assessed as half life measured for 5 to 60 mins by LC-MS/MS analysis; type: ADME, Microsome; details: time 5-60 min
[3] = target: CDK9/cyclin T1 (Homo sapiens, UniProt P50750); test: Inhibition of CDK9/cyclin T1 (unknown origin) preincubated for 10 mins followed by substrate/ATP measured after 60 mins by ADP-Glo assay; type: protein-complex assay
Sequence of CDK9/cyclin T1 (O60563 whole entry): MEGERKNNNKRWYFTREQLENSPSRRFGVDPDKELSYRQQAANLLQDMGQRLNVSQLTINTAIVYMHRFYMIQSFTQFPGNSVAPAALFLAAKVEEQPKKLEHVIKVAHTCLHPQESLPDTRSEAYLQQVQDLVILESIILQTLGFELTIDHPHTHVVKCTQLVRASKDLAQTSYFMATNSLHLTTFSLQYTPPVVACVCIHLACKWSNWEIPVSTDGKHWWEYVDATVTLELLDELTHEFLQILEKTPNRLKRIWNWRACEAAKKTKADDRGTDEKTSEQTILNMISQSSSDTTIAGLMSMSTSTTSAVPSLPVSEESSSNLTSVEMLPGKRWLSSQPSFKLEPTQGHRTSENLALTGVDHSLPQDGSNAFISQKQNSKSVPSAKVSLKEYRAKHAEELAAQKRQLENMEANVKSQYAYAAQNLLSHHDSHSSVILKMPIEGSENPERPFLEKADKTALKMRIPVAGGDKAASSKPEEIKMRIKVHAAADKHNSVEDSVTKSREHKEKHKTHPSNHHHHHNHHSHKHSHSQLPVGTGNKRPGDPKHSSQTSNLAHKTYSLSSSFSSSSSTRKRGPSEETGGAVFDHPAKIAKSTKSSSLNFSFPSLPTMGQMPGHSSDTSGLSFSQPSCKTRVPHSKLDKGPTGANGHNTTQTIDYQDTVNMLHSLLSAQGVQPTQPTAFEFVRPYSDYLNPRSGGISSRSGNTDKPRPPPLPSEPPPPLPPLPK
Sequence of CDK9/cyclin T1 (P50750 whole entry): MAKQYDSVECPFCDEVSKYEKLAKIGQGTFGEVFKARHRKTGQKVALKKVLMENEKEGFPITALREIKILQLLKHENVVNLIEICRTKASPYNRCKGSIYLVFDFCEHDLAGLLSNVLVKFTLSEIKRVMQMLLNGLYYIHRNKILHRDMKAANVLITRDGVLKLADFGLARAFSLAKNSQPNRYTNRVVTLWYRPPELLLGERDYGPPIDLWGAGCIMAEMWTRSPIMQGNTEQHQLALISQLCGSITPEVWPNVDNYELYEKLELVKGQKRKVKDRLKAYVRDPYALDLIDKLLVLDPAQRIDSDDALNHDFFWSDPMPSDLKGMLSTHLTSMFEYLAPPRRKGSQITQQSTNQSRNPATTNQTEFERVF

[4] = target: CDK2/Cyclin A2 (Homo sapiens, UniProt P24941); test: Inhibition of CDK2/Cyclin A2 (unknown origin) preincubated for 10 mins followed by substrate/ATP measured after 60 mins by ADP-Glo assay; type: protein-complex assay
[5] = system: Osimertinib-resistant NCI-H1975 cell; test: Anti-proliferative activity against human Osimertinib-resistant NCI-H1975 cells assessed as cell inhibition measured after 72 hrs by MTT assay; type: functional, cell-based
[6] = system: NCI-H1975; test: Anti-proliferative activity against human NCI-H1975 cells assessed as cell inhibition measured after 72 hrs by MTT assay; type: functional, cell-based; details: NCI-H1975, 72 h
[7] = Anti-proliferative activity against human Osimertinib-resistant HCC827 cells assessed as cell inhibition measured after 72 hrs by MTT assay; type: functional, cell-based
[8] = Solubility of compound in PBS at pH 6.0 incubated for 2 hrs by HPLC analysis; type: physicochemical
[9] = system: HCC827; test: Anti-proliferative activity against human HCC827 cells assessed as cell inhibition measured after 72 hrs by MTT assay; type: functional, cell-based; details: HCC827, 72 h
[10] = system: NCI-H1299; test: Anti-proliferative activity against human NCI-H1299 cells assessed as cell inhibition measured after 72 hrs by MTT assay; type: functional, cell-based; details: NCI-H1299, 72 h
[11] = system: PC-9; test: Anti-proliferative activity against human PC-9 cells assessed as cell inhibition measured after 72 hrs by MTT assay; type: functional, cell-based; details: PC-9, 72 h
[12] = system: NCI-H596; test: Anti-proliferative activity against human NCI-H596 cells assessed as cell inhibition measured after 72 hrs by MTT assay; type: functional, cell-based; details: NCI-H596, 72 h
[13] = system: 16HBE14o-; test: Anti-proliferative activity against human 16-HBE cells assessed as cell inhibition measured after 72 hrs by MTT assay; type: functional, cell-based
[14] = system: Osimertinib-resistant NCI-H1975 cell; test: Induction of apoptosis in human Osimertinib-resistant NCI-H1975 cells assessed as viable cells at 0.5 uM incubated for 16 hrs by Annexin V-FITC/PI staining based flow cytometry (reference value: 89.4 %); type: functional; details: read-out: Activity
[15] = system: Osimertinib-resistant NCI-H1975 cell; test: Induction of apoptosis in human Osimertinib-resistant NCI-H1975 cells assessed as early apoptotic cells at 0.5 uM incubated for 16 hrs by Annexin V-FITC/PI staining based flow cytometry (reference value: 4.39 %); type: functional
[16] = system: Osimertinib-resistant NCI-H1975 cell; test: Induction of apoptosis in human Osimertinib-resistant NCI-H1975 cells assessed as late apoptotic cells at 0.5 uM incubated for 16 hrs by Annexin V-FITC/PI staining based flow cytometry (reference value: 5.92 %); type: functional
[17] = system: Osimertinib-resistant NCI-H1975 cell; test: Induction of apoptosis in human Osimertinib-resistant NCI-H1975 cells assessed as necrotic cells at 0.5 uM incubated for 16 hrs by Annexin V-FITC/PI staining based flow cytometry (reference value: 0.33 %); type: functional
[18] = system: Osimertinib-resistant HCC827 cell; test: Antitumor activity against human Osimertinib-resistant HCC827 cells xenografted in BALB-c nude mouse assessed as tumor growth inhibition at 30 mg/kg, ip; type: functional, organism-based
[19] = system: NCI-H1975; test: Antitumor activity against human NCI-H1975 cells xenografted in BALB-c nude mouse assessed as tumor growth inhibition at 30 mg/kg, ip; type: functional, organism-based
[20] = Toxicity in BALB-c mouse xenografted with human NCI-H1975 cells assessed as decrease in body weight at 30 mg/kg, ip; type: organism-based; details: in vivo
[21] = Toxicity in BALB-c mouse xenografted with human Osimertinib-resistant HCC827 cells assessed as decrease in body weight at 30 mg/kg, ip; type: organism-based; details: in vivo

Row | Structure (SMILES) | half-life [1] [min] | half-life [2] [min] | pIC50 [3] | pIC50 [4] | pIC50 [5] | pIC50 [6] | pIC50 [7] | other results
1 | O=C(NC1CCN(C2CCOCC2)CC1)c1ccc2cc1OCCCCCCOc1cc(ccc1F)-c1nc(ncc1F)N2 | 301 | – | – | – | – | – | – | –
2 | CN1CCC(CNC(=O)c2ccc3cc2OCCCCCCOc2cc(ccc2F)-c2nc(ncc2F)N3)CC1 | 112 | 12.4 | 8.51 | 7.41 | 6.60 | – | – | –
3 | CC(C)N1CCC(NC(=O)c2ccc3cc2OCCCCCCOc2cc(ccc2F)-c2nc(ncc2F)N3)CC1 | 161 | 8.6 | 8.64 | 7.17 | 6.44 | 6.43 | – | –
4 | CN1CCC(NC(=O)c2ccc3cc2OCCCCCCOc2cc(ccc2F)-c2nc(ncc2F)N3)CC1 | 66.6 | 42.5 | – | – | – | – | – | –
5 | COC[C@@H](C)NC(=O)c1ccc2cc1OCCCCCCOc1cc(ccc1F)-c1nc(ncc1F)N2 | 11.3 | 123 | 8.60 | < 6.30 | 6.66 | 6.52 | 6.55 | –
6 | O=C(CN1CCOCC1)NCc1ccc2cc1OCCCCCCOc1cc(ccc1F)-c1nc(ncc1F)N2 | – | – | 8.29 | 6.70 | – | 6.23 | – | solubility at 2 h [8]: 20 µg/mL (≈ 36.1 µM)
7 | O=C(NC1CCN(C2CC2)CC1)c1ccc2cc1OCCCCCCOc1cc(ccc1F)-c1nc(ncc1F)N2 | 21.4 | 64.7 | 8.47 | 6.43 | 6.64 | 6.49 | 6.68 | –
8 | O=C(NC1CCN(C2CC2)CC1)c1ccc2cc1OCCCCCCn1cc(cn1)-c1nc(ncc1F)N2 | – | – | 9.00 | 7.94 | – | – | – | –
9 | COc1cc(F)ccc1-c1cc(Nc2cc(CS(C)(=N)=O)ccn2)ncc1F (stereo not given) [ENITOCICLIB] | – | – | – | – | 6.92 | 6.85 | 6.89 | pIC50 [9]: 6.89; pIC50 [10]: 6.89; pIC50 [11]: 6.92; pIC50 [12]: 7.05; pIC50 [13]: 6.39; viability at 0.5 µM [14]: 76.9%; Activity [15]: 11.8%; Activity [16]: 10.1%; Activity [17]: 1.26%
10 | CN1CCN(CCNC(=O)c2ccc3cc2OCCCCCCOc2cc(ccc2F)-c2nc(ncc2F)N3)CC1 | 13.2 | 9.5 | – | – | – | – | – | –
11 | O=C(NC1CCN(C2CCOC2)CC1)c1ccc2cc1OCCCCCCOc1cncc(c1)-c1nc(ncc1F)N2 (stereo not given) | – | – | 8.96 | 7.74 | – | 7.22 | 7.40 | solubility at 2 h [8]: 58 µg/mL (≈ 101 µM)
12 | O=C(NCCN1CCOCC1)c1ccc2cc1OCCCCCCOc1cncc(c1)-c1nc(ncc1F)N2 | – | – | 8.82 | 7.65 | – | 7.15 | – | solubility at 2 h [8]: 39 µg/mL (≈ 72.7 µM)
13 | O=C(NCCN1CCOCC1)c1ccc2cc1OCCCCCCOc1cc(ccc1F)-c1nc(ncc1F)N2 | 10.7 | 6.8 | – | – | – | 6.74 | 6.62 | solubility at 2 h [8]: 17 µg/mL (≈ 30.7 µM)
14 | O=C(NC1CCN(C2CCOC2)CC1)c1ccc2cc1OCCCCCCn1cc(cn1)-c1nc(ncc1F)N2 (stereo not given) | – | – | 8.89 | 7.85 | – | 7.05 | 7.10 | solubility at 2 h [8]: 35 µg/mL (≈ 63.7 µM)
15 | O=C(NC1CCN(C2CCOC2)CC1)c1ccc2cc1OCCCCCCOc1cc(ccc1F)-c1ncnc(n1)N2 (stereo not given) | – | – | 8.21 | 6.54 | – | 6.96 | 6.46 | solubility at 2 h [8]: 27 µg/mL (≈ 46.8 µM)
16 | O=C(NC1CCN(C2CC2)CC1)c1ccc2cc1OCCCCCCOc1cncc(c1)-c1nc(ncc1F)N2 | – | – | 8.85 | 7.55 | – | – | – | –
17 | O=C(NCCN1CCCC1)c1ccc2cc1OCCCCCCOc1cc(ccc1F)-c1nc(ncc1F)N2 | 37.7 | 36.7 | 8.77 | 7.74 | 7.00 | 6.54 | 6.85 | –
18 | CC(=O)N1CCC(NC(=O)c2ccc3cc2OCCCCCCOc2cncc(c2)-c2nc(ncc2F)N3)CC1 | – | – | 9.00 | 7.69 | – | – | 7.40 | –
19 | O=C(NC1CCN(C2CCOC2)CC1)c1ccc2cc1OCCCCCCOc1cc(ccc1F)-c1nc(ncc1F)N2 (stereo not given) | 55 | 25.2 | 9.00 | 6.82 | 6.96 | 6.42 | 6.52 | –
20 | Cc1sc2c(c1C)C(c1ccc(Cl)cc1)=N[C@@H](CC(=O)OC(C)(C)C)c1nnc(C)n1-2 | – | – | – | – | 5.64 | 5.40 | 5.05 | pIC50 [9]: 5.01; inhibition [18]: inactive; inhibition [19]: inactive; Activity [20]: Non-toxic; Activity [21]: Non-toxic
21 | CCN1CCC(NC(=O)c2ccc3cc2OCCCCCCOc2cc(ccc2F)-c2nc(ncc2F)N3)CC1 | 257 | 5.4 | 8.64 | 7.16 | 6.55 | 6.55 | – | –
